Values after ≈ are worked out from the molar mass of the structure shown.

What all share (test): MIC by standard agar dilution test
Common to all, as to assay type: cell-based

Assay [1] relates to Bordetella bronchiseptica 16. As to conditions: Bordetella bronchiseptica, 16, read-out: Minimum Inhibitory Concentration. The source says: (§1) The antibacterial activity of the antibiotic compounds of this invention is illustrated by the following in vitro and in vivo test data obtained with representative compounds. In Tables I and II, the minimum inhibitory concentration (MIC) for representative compounds against a wide range of gram-positive and gram-negative bacteria are presented. The MIC values were obtained by the standard agar dilution test.

Assay [2] concerns Citrobacter freundii CF17. As to conditions: Table 1, read-out: Minimum Inhibitory Concentration.
From the text: as §1

The subject of assay [3] is Enterobacter cloacae EN453. To be noted: Table II, read-out: Minimum Inhibitory Concentration.
From the text: as §1

In another assay the test system is Escherichia coli TEM. As to conditions: read-out: Minimum Inhibitory Concentration.
From the text: as §1

The test system of assay [4] is Haemophilus influenzae HOLT. As to conditions: Table 1, read-out: Minimum Inhibitory Concentration.
From the text: as §1

Assay [5] deals with Pseudomonas aeruginosa Ps15. To be noted: Table II, read-out: Minimum Inhibitory Concentration.
From the text: as §1

The subject of assay [6] is Pseudomonas aeruginosa Ps18. To be noted: Table 1; Pseudomonas aeruginosa Ps18; agar dilution; read-out: Minimum Inhibitory Concentration.
From the text: as §1

Assay [7] deals with Pseudomonas aeruginosa Ps9. To be noted: Table II, read-out: Minimum Inhibitory Concentration.
From the text: as §1

In assay [8] the test system is Pseudomonas aeruginosa X48. To be noted: Table II, read-out: Minimum Inhibitory Concentration.
From the text: as §1

Assay [9] concerns Staphylococcus aureus V41. To be noted: Table 1, read-out: Minimum Inhibitory Concentration.
From the text: as §1

Assay [10] deals with Staphylococcus aureus X1.1. As to conditions: Table 1, read-out: Minimum Inhibitory Concentration.
From the text: as §1

The subject of assay [11] is Streptococcus group D 9960. As to conditions: D9960, Table 1, read-out: Minimum Inhibitory Concentration.
From the text: as §1

Assay [12] concerns Streptococcus group D X66. To be noted: DX66, Table 1, read-out: Minimum Inhibitory Concentration.
From the text: as §1

Take `CN[C@@H]1[C@@H](O[C@H]2O[C@H](CO)[C@@H](NC(C)=O)[C@H](O)[C@H]2O)O[C@H]2C[C@@H](N)[C@@H](O[C@H]3[C@H](O)[C@@H](O)[C@H](N)C[C@@H]3N)O[C@@H]2[C@@H]1O` [Test Compound 1, 4"-N-Acetylapramycin]: the MIC in assay [1] came to 128 µg/mL (≈ 220 µM); in [2], 32 µg/mL (≈ 55 µM); in [3], 8 µg/mL (≈ 13.8 µM); in the assay on Escherichia coli TEM, 16 µg/mL (≈ 27.5 µM); in assay [4], 16 µg/mL (≈ 27.5 µM); in [5], 32 µg/mL (≈ 55 µM). Besides, the MIC in assay [6] is 16 µg/mL (≈ 27.5 µM); in assay [7], 128 µg/mL (≈ 220 µM); in [8] it was 32 µg/mL (≈ 55 µM); in assay [9], 64 µg/mL (≈ 110 µM); in assay [10], 32 µg/mL (≈ 55 µM); in [11] it was > 128 µg/mL. Moreover, in assay [12], the MIC is > 128 µg/mL.
